Where “and” joins values, the source holds several entries; their conditions need not be identical. Identical values can stand only once. Inconclusive results and toxic doses are left out. Rule as the data show it: active = T/C of 150% or more; inactive = T/C below 125%.
System: L1210 leukemia ip in BDF1 mice, survival T/C
Test: NCI In Vivo Anticancer Drug Screen. Data for tumor model L1210 Leukemia (intraperitoneal) in B6D2F1 (BDF1) mice
Conditions: endpoint: mean survival time, higher = longer survival
Procedure, shortened: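 Value reflects the ratio of survival in compound-treated mice to survival in vehicle-treated controls, with both groups carrying the same transplanted tumor.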

[1] = dose: 10.0 mg/kg/injection, schedule: Q01DX001 (ip), vehicle: Klucel (hydroxypropylcellulose) (HPC)
[2] = dose: 10.0 mg/kg/injection, schedule: Q01DX009 (ip), vehicle: Klucel (hydroxypropylcellulose) (HPC)
[3] = dose: 100.0 mg/kg/injection, schedule: Q01DX009 (ip), vehicle: Klucel (hydroxypropylcellulose) (HPC)
[4] = dose: 100.0 mg/kg/injection, schedule: Q04DX003 (ip), vehicle: Klucel (hydroxypropylcellulose) (HPC)
[5] = dose: 200.0 mg/kg/injection, schedule: Q01DX009 (ip), vehicle: Klucel (hydroxypropylcellulose) (HPC)
[6] = dose: 200.0 mg/kg/injection, schedule: Q04DX003 (ip), vehicle: Klucel (hydroxypropylcellulose) (HPC)
[7] = dose: 400.0 mg/kg/injection, schedule: Q01DX009 (ip), vehicle: Klucel (hydroxypropylcellulose) (HPC)
[8] = dose: 400.0 mg/kg/injection, schedule: Q04DX003 (ip), vehicle: Klucel (hydroxypropylcellulose) (HPC)
[9] = dose: 50.0 mg/kg/injection, schedule: Q04DX003 (ip), vehicle: saline
[10] = dose: 100.0 mg/kg/injection, schedule: Q01DX001 (ip), vehicle: saline
[11] = dose: 100.0 mg/kg/injection, schedule: Q04DX003 (ip), vehicle: saline

Measured: T/C

O=C1NC(C2CC3C=CC2C3)Nc2ccccc21 (stereo unspecified)
inactive: dose: 12.5 mg/kg/injection, schedule: Q01DX009 (ip), vehicle: Klucel (hydroxypropylcellulose) (HPC) 100 % of control | dose: 12.5 mg/kg/injection, schedule: Q04DX003 (ip), vehicle: Klucel (hydroxypropylcellulose) (HPC) 111 % of control | dose: 25.0 mg/kg/injection, schedule: Q01DX009 (ip), vehicle: Klucel (hydroxypropylcellulose) (HPC) 101 % of control | dose: 25.0 mg/kg/injection, schedule: Q04DX003 (ip), vehicle: Klucel (hydroxypropylcellulose) (HPC) 103 % of control | dose: 50.0 mg/kg/injection, schedule: Q01DX009 (ip), vehicle: Klucel (hydroxypropylcellulose) (HPC) 96 % of control | dose: 50.0 mg/kg/injection, schedule: Q04DX003 (ip), vehicle: Klucel (hydroxypropylcellulose) (HPC) 103 % of control

COC[P+](c1ccccc1)(c1ccccc1)c1ccccc1
inactive: dose: 1.25 mg/kg/injection, schedule: Q01DX001 (ip), vehicle: Klucel (hydroxypropylcellulose) (HPC) 96 % of control | dose: 1.25 mg/kg/injection, schedule: Q01DX009 (ip), vehicle: Klucel (hydroxypropylcellulose) (HPC) 90 % of control | dose: 2.5 mg/kg/injection, schedule: Q01DX001 (ip), vehicle: Klucel (hydroxypropylcellulose) (HPC) 105 % of control | dose: 2.5 mg/kg/injection, schedule: Q01DX009 (ip), vehicle: Klucel (hydroxypropylcellulose) (HPC) 92 % of control | dose: 5.0 mg/kg/injection, schedule: Q01DX001 (ip), vehicle: Klucel (hydroxypropylcellulose) (HPC) 97 % of control | dose: 5.0 mg/kg/injection, schedule: Q01DX009 (ip), vehicle: Klucel (hydroxypropylcellulose) (HPC) 96 % of control | [1] 100 % of control | [2] 113 % of control

COc1cc(C(=O)CCC(=O)O)cc(OC)c1OC
inactive: [3] 96 % of control | [4] 96 % of control | [5] 104 % of control | [6] 102 % of control | [7] 102 % of control | [8] 93 % of control

CCOC(=O)C1C(O)=C(C(=O)Nc2ccccc2)C(=O)C(C(=O)O)C1C1CC=CCC1 (stereo unspecified)
inactive: dose: 100.0 mg/kg/injection, schedule: Q01DX001 (ip), vehicle: other 97 % of control | dose: 100.0 mg/kg/injection, schedule: Q04DX003 (ip), vehicle: saline with Tween-80 94 % of control | dose: 200.0 mg/kg/injection, schedule: Q01DX001 (ip), vehicle: other 100 % of control | dose: 200.0 mg/kg/injection, schedule: Q04DX003 (ip), vehicle: saline with Tween-80 103 % of control | dose: 400.0 mg/kg/injection, schedule: Q04DX003 (ip), vehicle: saline with Tween-80 100 % of control

O=C(NCCCl)NC1C2CC3CC(C2)CC1C3 (stereo unspecified)
inactive: dose: 75.0 mg/kg/injection, schedule: Q01DX001 (ip), vehicle: other 93 % of control | dose: 150.0 mg/kg/injection, schedule: Q01DX001 (ip), vehicle: other 89 % of control | dose: 300.0 mg/kg/injection, schedule: Q01DX001 (ip), vehicle: other 89 % of control

CCOC(=O)CCc1cc2cc(C)nnc2[nH]1
inactive: dose: 100.0 mg/kg/injection, schedule: Q04DX002 (ip), vehicle: Klucel (hydroxypropylcellulose) (HPC) 95 % of control | dose: 200.0 mg/kg/injection, schedule: Q04DX002 (ip), vehicle: Klucel (hydroxypropylcellulose) (HPC) 91 % of control | dose: 400.0 mg/kg/injection, schedule: Q04DX002 (ip), vehicle: Klucel (hydroxypropylcellulose) (HPC) 106 % of control

COCc1nnc2ncnc(OC)c2n1
inactive: dose: 25.0 mg/kg/injection, schedule: Q01DX009 (ip), vehicle: saline 106 % of control | dose: 25.0 mg/kg/injection, schedule: Q04DX003 (ip), vehicle: saline 100 % of control | dose: 50.0 mg/kg/injection, schedule: Q01DX009 (ip), vehicle: saline 93 % of control | [9] 102 % of control | [10] 98 % of control | dose: 100.0 mg/kg/injection, schedule: Q01DX009 (ip), vehicle: saline 88 % of control | [11] 98 % of control

COCCN=C(NCCOC)c1ccc(Nc2ncnc3nc[nH]c23)cc1
inactive: [9] 102 % of control | [11] 95 % of control

CC1(C)N=C(N)N=C(N)N1c1cccc(OCCOc2ccccc2[N+](=O)[O-])c1
inactive: [1] 108 % of control | [2] 98 % of control and 101 % of control | dose: 10.0 mg/kg/injection, schedule: Q04DX002 (ip), vehicle: Klucel (hydroxypropylcellulose) (HPC) 94 % of control and 90 % of control | dose: 10.0 mg/kg/injection, schedule: Q04DX003 (ip), vehicle: Klucel (hydroxypropylcellulose) (HPC) 96 % of control | dose: 20.0 mg/kg/injection, schedule: Q01DX001 (ip), vehicle: Klucel (hydroxypropylcellulose) (HPC) 104 % of control | dose: 20.0 mg/kg/injection, schedule: Q01DX009 (ip), vehicle: Klucel (hydroxypropylcellulose) (HPC) 102 % of control and 108 % of control | dose: 20.0 mg/kg/injection, schedule: Q04DX002 (ip), vehicle: Klucel (hydroxypropylcellulose) (HPC) 101 % of control and 120 % of control | dose: 20.0 mg/kg/injection, schedule: Q04DX003 (ip), vehicle: Klucel (hydroxypropylcellulose) (HPC) 100 % of control | dose: 40.0 mg/kg/injection, schedule: Q01DX001 (ip), vehicle: Klucel (hydroxypropylcellulose) (HPC) 101 % of control | dose: 40.0 mg/kg/injection, schedule: Q01DX009 (ip), vehicle: Klucel (hydroxypropylcellulose) (HPC) 104 % of control and 108 % of control | dose: 40.0 mg/kg/injection, schedule: Q04DX002 (ip), vehicle: Klucel (hydroxypropylcellulose) (HPC) 94 % of control and 90 % of control | dose: 40.0 mg/kg/injection, schedule: Q04DX003 (ip), vehicle: Klucel (hydroxypropylcellulose) (HPC) 102 % of control

CNC(=S)N/N=C/c1ccc2c(c1)CCC2
inactive: [4] 100 % of control | [6] 100 % of control | [8] 91 % of control

Cc1c([N+](=O)[O-])cc(C(C)(C)C)c(O)c1[N+](=O)[O-]
inactive: dose: 6.25 mg/kg/injection, schedule: Q01DX009 (ip), vehicle: saline with Tween-80 95 % of control | dose: 12.5 mg/kg/injection, schedule: Q01DX009 (ip), vehicle: saline with Tween-80 91 % of control | dose: 12.5 mg/kg/injection, schedule: Q04DX002 (ip), vehicle: Klucel (hydroxypropylcellulose) (HPC) 110 % of control | dose: 25.0 mg/kg/injection, schedule: Q04DX002 (ip), vehicle: Klucel (hydroxypropylcellulose) (HPC) 112 % of control | dose: 25.0 mg/kg/injection, schedule: Q04DX002 (ip), vehicle: saline with Tween-80 89 % of control

Cn1c2c(c3ccccc3c1=O)C(=O)c1ccccc1-2
inactive: dose: 50.0 mg/kg/injection, schedule: Q01DX001 (ip), vehicle: carboxymethylcellulose (CMC) 94 % of control | dose: 100.0 mg/kg/injection, schedule: Q01DX001 (ip), vehicle: carboxymethylcellulose (CMC) 94 % of control | dose: 200.0 mg/kg/injection, schedule: Q01DX001 (ip), vehicle: carboxymethylcellulose (CMC) 91 % of control | dose: 400.0 mg/kg/injection, schedule: Q01DX001 (ip), vehicle: carboxymethylcellulose (CMC) 91 % of control

CCOC(=O)C(C)(C)OC(=O)Nc1ccccc1
inactive: [4] 98 % of control | [6] 91 % of control | [8] 98 % of control

Cc1ccc(S(=O)(=O)N/N=C\c2cccc([N+](=O)[O-])c2)cc1
inactive: [3] 103 % of control | [5] 98 % of control | [7] 93 % of control

NC(N)=N/N=C(\c1ccc(F)cc1)C1CC1
inactive: dose: 15.0 mg/kg/injection, schedule: Q01DX Z (ip), vehicle: methylcellulose (MC) 94 % of control | dose: 15.0 mg/kg/injection, schedule: Q01DX Z (oral), vehicle: methylcellulose (MC) 110 % of control | dose: 30.0 mg/kg/injection, schedule: Q01DX Z (ip), vehicle: methylcellulose (MC) 95 % of control | dose: 30.0 mg/kg/injection, schedule: Q01DX Z (oral), vehicle: methylcellulose (MC) 105 % of control | dose: 60.0 mg/kg/injection, schedule: Q01DX Z (oral), vehicle: methylcellulose (MC) 96 % of control | dose: 120.0 mg/kg/injection, schedule: Q01DX Z (oral), vehicle: methylcellulose (MC) 104 % of control

CCOC(=O)C(Cc1ccc(O)cc1)NP(=O)(OCCCl)OCCCl (stereo unspecified)
inactive: [3] 100 % of control | [4] 95 % of control | [5] 98 % of control | [6] 90 % of control | [7] 100 % of control | [8] 94 % of control

CCOC(=O)c1ccc2c3c(ccc([N+](=O)[O-])c13)CC2
inactive: dose: 50.0 mg/kg/injection, schedule: Q01DX001 (ip), vehicle: saline 98 % of control | [10] 104 % of control | dose: 200.0 mg/kg/injection, schedule: Q01DX001 (ip), vehicle: saline 101 % of control | dose: 400.0 mg/kg/injection, schedule: Q01DX001 (ip), vehicle: saline 98 % of control
